Measurements: paper PMC12193579, “Pro-Apoptotic Activity of 1-(4,5,6,7-Tetrabromo-1H-benzimidazol-1-yl)propan-2-one, an Intracellular Inhibitor of PIM-1 Kinase in Acute Lymphoblastic Leukemia and Breast Cancer Cells” (International Journal of Molecular Sciences, 2025)

How the values were obtained:
[1] = tested on: CK2 in CCRF-CEM cells (Ser529 in NF-κB p65); assay: PhosFlow analysis of NF-κB p65 Ser529 phosphorylation, CCRF-CEM; format: cell-based, human; details: 16 µM, 24 h
Method: CCRF-CEM cells were prepared following the BD PhosFlow™ Protocol for Human PBMCs using NF-κB p65 (pS529)-PE (#558423), BD PhosFlow™ Perm Buffer III (#558050), Cytofix Fixation Buffer (#554655), and Stain Buffer FBS (#554656), all obtained from Becton Dickinson. Flow cytometric analysis was performed using a BD Accuri C6 Plus cytometer (Becton Dickinson) according to the manufacturer’s instructions.

[2] = tested on: MCF-7 cells; assay: mitochondrial membrane potential (ΔΨm) JC-1 assay, MCF-7; format: cell-based, human; details: 48 h
Method: (§1) The mitochondrial membrane potential was evaluated by flow cytometry using 5,5′,6,6′-tetrachloro-1,1′,3,3′-tetraethylbenzimidazolocarbocyanine iodide (JC-1; Sigma-Aldrich), as previously described.

[3] = molecular target: T1, PIM-1 kinase (Homo sapiens, UniProt P11309); assay: radiometric P81 filter isotopic kinase assay, PIM-1; format: biochemical
T1 construct: made in house
T1 sequence (P11309 whole entry): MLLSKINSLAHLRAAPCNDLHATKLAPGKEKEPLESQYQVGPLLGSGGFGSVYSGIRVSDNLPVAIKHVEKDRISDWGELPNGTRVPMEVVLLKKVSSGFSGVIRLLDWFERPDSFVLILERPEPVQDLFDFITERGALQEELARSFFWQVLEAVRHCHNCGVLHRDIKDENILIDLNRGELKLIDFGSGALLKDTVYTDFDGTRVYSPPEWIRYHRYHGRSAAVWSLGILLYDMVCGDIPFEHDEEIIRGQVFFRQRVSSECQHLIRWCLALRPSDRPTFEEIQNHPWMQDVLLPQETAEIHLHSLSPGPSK
Method: (§2) Synthetic peptide […] served as the substrate for CK2, while peptide […] was used as the substrate for PIM-1.
(§3) The synthesized compounds were evaluated for their inhibitory activity against human CK2α, the human CK2 holoenzyme, and PIM-1 using the P81 filter-based isotopic assay, as previously described. […] The experimental data were fitted to a dose–response curve using non-linear regression analysis (variable slope) Y = Bottom + (Top − Bottom)/(1 + 10^((LogIC50 − X) × HillSlope) equation in GraphPad Prism (Prism 9, version 9.0.1).

[4] = tested on: CCRF-CEM (acute lymphoblastic leukemia); assay: MTT-based viability assay, CCRF-CEM; format: cell-based, human
Method: (§4) 3. The cytotoxicity of the newly obtained inhibitors, i.e., 1, 2, and 4 was tested towards four cell lines, i.e., CCRF-CEM (acute lymphoblastic leukemia ALL), MCF-7 (breast carcinoma), MDA-MB-231 (triple negative breast carcinoma), and Vero (Cercopithecus aethiops kidney).
(§5) The CCRF-CEM (acute lymphoblastic leukemia, ALL) and MDA-MB-231 (triple-negative breast adenocarcinoma) cell lines were obtained from the European Collection of Authenticated Cell Cultures (ECACC), while the MCF-7 (hormone-dependent breast adenocarcinoma) and Vero (Cercopithecus aethiops kidney) cell lines were purchased from the American Type Culture Collection (ATCC, Manassas, VA, USA). CCRF-CEM cells were maintained in RPMI-1640 medium, whereas MCF-7 and MDA-MB-231 cells were cultured in DMEM (Sigma-Aldrich Chemical Company, St. Louis, MO, USA). Vero cells were cultured in minimum essential medium eagle (MEM; Sigma-Aldrich). All media were supplemented with 10% fetal bovine serum (FBS), 2 mM L-glutamine, and antibiotics (100 U/mL penicillin and 100 µg/mL streptomycin) (Sigma-Aldrich). Cells were grown in 75-cm^2 culture flasks (Googlab Scientific, Rakocin, Poland) in a humidified atmosphere containing 5% CO2 at 37 °C. All experiments were performed using exponentially growing cultures. Stock solutions of the test compounds were prepared in DMSO and stored at –80 °C for up to one month.
(§6) Following incubation with the tested compounds, the MTT assay was carried out as previously described. Optical density was measured at 570 nm using a BioTek microplate reader (Winooski, VT, USA). All measurements were performed in at least three independent biological replicates.

[5] = molecular target: T2, recombinant human CK2 catalytic subunit (rhCK2α) (Homo sapiens, UniProt P68400); assay: radiometric P81 filter isotopic kinase assay, CK2α; format: biochemical
T2 construct: made in house
T2 sequence (P68400 whole entry): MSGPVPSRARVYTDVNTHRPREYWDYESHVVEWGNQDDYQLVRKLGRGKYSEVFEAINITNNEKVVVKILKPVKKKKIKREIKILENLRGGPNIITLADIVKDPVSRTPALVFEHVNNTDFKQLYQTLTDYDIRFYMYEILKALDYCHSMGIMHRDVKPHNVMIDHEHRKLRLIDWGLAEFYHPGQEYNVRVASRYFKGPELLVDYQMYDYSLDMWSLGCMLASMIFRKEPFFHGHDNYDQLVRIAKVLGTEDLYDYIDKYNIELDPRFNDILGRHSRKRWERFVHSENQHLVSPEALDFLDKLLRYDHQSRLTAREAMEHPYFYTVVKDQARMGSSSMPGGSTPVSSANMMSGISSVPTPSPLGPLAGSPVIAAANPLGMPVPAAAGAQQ
Method: as §2, §3

[6] = tested on: CK2 in CCRF-CEM cells (Ser529 in NF-κB p65); assay: Western blot of phosphorylated p65 (Ser529), intracellular CK2 inhibition, CCRF-CEM; format: cell-based, human; details: 16 µM, 24 h, untreated cells = 1
Method: After 24 h of treatment, we assessed site-specific phosphorylation of Ser529 in NF-κB p65 and Ser112 in BAD—a marker of PIM kinase activity—using Western blot analysis (Figure 8). The data for BAD confirmed intracellular inhibition of this kinase by the tested compounds in both cell lines in a dose-dependent manner. A statistically significant decrease in phosphorylated BAD was observed following treatment with 16 µM of compound 1, with relative protein levels reduced to 0.48 and 0.46 in CCRF-CEM and MCF-7 cells, respectively (Figure 8a–c).
Exponentially growing CCRF-CEM or MCF-7 cells were seeded at a density of 6 × 10^5 cells per 6 cm dish. Compounds were then added, with a final DMSO concentration of 0.5%. Cell lysates were prepared as previously described. The ECL substrate was used for signal detection, and the immunoblots were scanned using a G:BOX Chemi imaging system (Syngene, Cambridge, UK) equipped with GeneSys software, Version 1.4.3.0 (Syngene, Cambridge, UK).
For densitometric analysis, immunoblots were scanned using the G:BOX Chemi system (Syngene), and the band intensities of phosphorylated and total proteins were quantified with GeneSys software (Syngene, Cambridge, UK). The levels of phosphorylated proteins were normalized to GAPDH, with the value for untreated cells set to 1, and subsequently expressed as a percentage relative to the appropriate control.

[7] = tested on: CCRF-CEM cells; assay: mitochondrial membrane potential (ΔΨm) JC-1 assay, CCRF-CEM; format: cell-based, human; details: 48 h
Method: as §1

[8] = tested on: caspase-3 in CCRF-CEM cells; assay: caspase-3 activation, flow cytometry, CCRF-CEM; format: cell-based, human; details: 16 µM, 24 h
Method: Since caspase-3 is a key protease activated in the early stages of apoptosis, we next investigated whether apoptosis in CCRF-CEM cells is mediated through caspase-3 activation. Both cpd. […] 1. The results are consistent with the previously observed pro-apoptotic properties of derivative 1.
Caspase-3 activity was measured using the FITC Active Caspase-3 Apoptosis Kit (BD Pharmingen, San Jose, CA, USA) according to the manufacturer’s instructions. The stained cells were measured with a BD Accuri C6 Plus flow cytometer.

[9] = tested on: Vero (Cercopithecus aethiops kidney); assay: MTT-based viability assay, Vero; format: cell-based; details: Chlorocebus sabaeus, MTT, 48 h, non-cancerous cells, read-out: IC50 [µM] Vero
Method: as §4, §5, §6

With `CC(=O)Cn1cnc2c(Br)c(Br)c(Br)c(Br)c21` [compound 1, 1-(4,5,6,7-tetrabromo-1H-benzimidazol-1-yl)propan-2-one] the “p65-P-negative CCRF-CEM cells” value [1] was 29%, the “MCF-7 cells with reduced ΔΨm” value ([2]; 16 µM) was 26% and the “MCF-7 cells with reduced ΔΨm” value ([2]; 32 µM) was 19%. For the same compound, the IC50 [3] was 0.52 ± 0.02 µM, the remaining activity at 2 µM ([3]; cpd. concentration 2 μM, read-out: PIM-1 Residual Activity [%]) was 22.4 ± 0.9% and the remaining activity at 5 µM ([3]; cpd. concentration 5 μM, read-out: PIM-1 Residual Activity [%]) was 10.3 ± 0.7%. The remaining activity at 20 µM ([3]; cpd. concentration 20 μM, read-out: PIM-1 Residual Activity [%]) was 2.9 ± 0.2%, the IC50 ([4]; Homo sapiens, CCRF-CEM, MTT, 48 h, read-out: IC50 [µM] CCRF-CEM) was 12.4 ± 0.82 µM and the “SI (selectivity index) CCRF-CEM” value ([4]; IC50 for Vero/IC50 for cancer cells) was 1.62. The IC50 [5] was 6.65 ± 0.74 µM, the remaining activity at 2 µM ([5]; cpd. concentration 2 μM, read-out: CK2α Residual Activity [%]) was 58.5 ± 2.2% and the remaining activity at 5 µM ([5]; cpd. concentration 5 μM, read-out: CK2α Residual Activity [%]) was 32.3 ± 0.3%. For the same compound, the remaining activity at 20 µM ([5]; cpd. concentration 20 μM, read-out: CK2α Residual Activity [%]) was 10.2 ± 0.6%, the “relative level of phosphorylated p65 (Ser529), CCRF-CEM” value [6] was 0.46 and the “CCRF-CEM cells with reduced ΔΨm” value ([7]; 16 µM) was 76%. The “CCRF-CEM cells with reduced ΔΨm” value ([7]; 32 µM) was 99.4%, the “CCRF-CEM cells with the active caspase-3” value [8] was 60% and the IC50 [9] was 20.2 ± 3.59 µM.
